pIC50: −log10 of the molar value. Read-outs that look alike come from different tables or passages of the source.
Tests used:
[1] = test system: SP1 trancription factor binding motif (6XSP1) promoter; assay: 6XSP1 luciferase transcription-based assay in 111Q/111Q striatum double knock-in cells; assay type: cell-based, mouse; details: 6XSP1 luciferase reporter; CG4 among CG series, less potent than C9-4
Procedure: FIGS. 1A-1C. FIG. 1A is a bar graph showing luciferase expression in Sp1-luc/111Q striatum double knock-in cells following treatment with different compounds, as indicated. Fluorescence was measured 24 hours after addition of compound. FIG. 1B is a bar graph as described in FIG. 1A. Fluorescence was measured 48 hours after addition of compound. FIG. 1C is a bar graph as described in FIG. 1A. Fluorescence was measured 72 hours after addition of compound.
We conducted structure activity relationship (SAR) studies to optimize transcription activation. We developed a novel transcription-based assay for this purpose. A luciferase reporter gene was stably integrated into 111Q/111Q striatum double knock-in cells and constitutively expressed under control of a promoter containing six copies of the SP1 trancription factor binding motif (6XSP1). In this system, C9 was determined to have an EC200 of 7.5 μM.

[2] = test system: HD Q51 aggregates in Cos1 cells; assay: HD Q51 aggregation in transfected Cos1 cells, cellulose acetate membrane trap; assay type: cell-based; details: Chlorocebus aethiops, COS-1; Cos1 cells transfected with HD Q51; read-out: IC50, polyQ aggregation (retained polyQ on membrane)
Procedure: The inhibitory activity we observed with C1-C4 in the PC12 cell model described above was confirmed in Cos1 cells transiently transfected with a CMV promoter-based DNA construct that encodes an Htt exon I fragment of Huntington's disease protein (Htt)) having 51 consecutive glutamine residues (HD Q51). When expressed in Cos1 cells, HD 51Q polypeptides readily form aggregates. Transfected Cos1 cells were incubated with C1-C4 compounds in culture medium and lysed. The lysates were then heat-denatured in SDS and passed through a cellulose acetate membrane, which captures aggregated, but not soluble polypeptides. Polyglutamine aggregates trapped on membranes were detected by immunostaining with antibody specific to extended polyQ. Pre-incubation of cells with compounds C1, C3, and C4 decreased the amount of retained polyQ, indicating inhibitory effects on polyQ aggregation. The IC50 for compound C1 was 10 μM and the IC50 for compounds C3 and C4 was 5 μM. As C2 was toxic for Cos1 cells, its effect on aggregation was not determined.

[3] = test system: aggregation of 103Q in PC12 cells; assay: polyQ (103Q) aggregation in ecdyson-inducible PC12 cells; assay type: cell-based, rat; details: Rattus norvegicus, PC-12
Procedure: To study the inhibitors we identified using the yeast screen in mammalian cells, we employed ecdyson-inducible rat phaeochromocytoma (PC12) cells. Compounds were tested in two clones, 14A2/5 and 14A2/6, with highest aggregation rate. We incubated undifferentiated PC12 cells with muristerone A to induce 103Q expression, and we exposed the cells to compounds at concentrations ranging from 1 to 10 μM. […] All compounds were non-toxic except C2, which was toxic at concentrations higher than 5 μM.
We tested these analogs at concentrations ranging from 0.025 μM to 5.0 μM for their effects on polyQ aggregation in PC12 cells. Among 24 analogs of C1; 28 analogs of C2; 24 analogs of C3, and 53 analogs of C4, we identified several potent inhibitors of polyQ aggregation. From our C2 focus library, we isolated compound C2-8 (B2 in Table 2), which inhibits polyQ aggregation with an IC50 value 50 nM. We also identified C2-10 (B6 in Table 2) and C2-11 (M16 (formula V(n)) in Table 5), and B7, B8 and B9 in Table 2. From our C3 focus library, we isolated compound C3-5 (M22 (formula V(t)) in Table 5) (having an IC50 value of 100 nM) and compound C3-6 (M17 (formula V(o)) in Table 5) (having an IC50 value of 5 μM). From our C4 library, we isolated compound C4-7 (A31 in Table 1), which has an IC50 value 100 nM. We also identified C4-34 (A3 in Table 1).

htt103Q-EGFP = assay: PC12 htt103Q-EGFP fluorescence assay; assay type: cell-based; details: PC12 cells
Source text: A PC12 cell line was engineered to express extended polyQ under the control of an ecdysone-inducible promoter. In the assay cell line, an N-terminal fragment of htt containing an extended polyQ tract was stably expressed as a fusion with EGFP (htt103Q-EGFP), from the pIND vector. Expression of extended polyQ in these cells was controlled by addition of an ecdysone analog, in this case muristerone A. In this assay, EGFP fluorescence directly correlated with htt103Q-EGFP expression levels. This system was designed to assess the effects of specific compounds on overall levels of extended polyglutamines in cells, using a simple fluorescent-based read-out.

[4] = test system: mutant Huntingtin transgene (htt); assay: transgene (mutant htt, extended polyQ) expression in inducible PC12 cells; assay type: cell-based, rat; details: PC12 cells, with scriptaid
Source text: (§1) The compound C9 (A33 in Table 1) has structural similarity to the histone deacetylase (HDAc) inhibitor, scriptaid (6-(1,3-Dioxo-1H,3H-benzo[de]isoquinolin-2-yl)-N-hydroxyhexanamide) (Su et al., Cancer Res. 60:3137, 2000; A5 in Table 1). We observed the most dramatic effect on expression level by C9 and scriptaid in the PC12 cell line 14A2/6 expressing the extended polyQ mutant htt(104Q). The effect of C9 on the down-regulation of polyQ expression, was similar to cystamine, a drug that has shown efficacy in a mouse model for Huntington's Disease (HD). […] 14A2/6 cells were at least 5-fold more responsive to chemical treatment than other cell lines tested.
Transcriptional dysregulation is a hallmark of HD. […] Expression of the polypeptide was under control of an inducible ecdysone receptor (EcR)-based promoter.

R2/6 HD mice = details: cited from earlier work
PC12 cells = assay: rescue from scriptaid-dependent synthetic lethality in PC12 cells; assay type: cell-based, rat
Source text: as §1

[5] = PC12 clones 14A2/5 and 14A2/6, muristerone A induced, 1 to 10 μM, read-out: IC50, aggregation of 103Q
[6] = PC12 cells, focus library analogs, 0.025 μM to 5.0 μM, read-out: IC50, polyQ aggregation

CCN1C(=O)c2cccc3c(NC(C)=O)ccc1c23 [CG4, N-(1-Ethyl-2-oxo-1,2-dihydro-benzo[cd]indol-6-yl)-acetamide]
transcription activation [1]: most potent transcriptional activator

CN(C)CCN1C(=O)c2ccc(Cl)c3c(Cl)ccc(c23)C1=O [Compound C1, 6,7-Dichloro-2-(2-dimethylamino-ethyl)-benzo[de]isoquinoline-1,3-dione]
pIC50 [2]: 5.00 | pIC50 [3, 5]: 5.00

CC/C(=C/c1sc2ccc3ccccc3c2[n+]1CCCS(=O)(=O)[O-])SC [Compound C3, 3-[2-(2-Methylsulfanyl-but-1-enyl)-naphtho[1,2-d]thiazol-1-yl]-propane-1-sulfonic acid anion]
pIC50 [2]: 5.30 | pIC50 [3, 5]: 5.30

c1ccc(-c2nc3cnc4ccccc4c3s2)cc1 [Compound C3-6, 2-Phenyl-thiazolo[4,5-c]quinoline]
pIC50 [3, 6]: 5.30

O=C1c2cccc3c(N4CCOCC4)ccc(c23)C(=O)N1Cc1ccccc1 [Compound C4, 2-Benzyl-6-morpholin-4-yl-benzo[de]isoquinoline-1,3-dione]
pIC50 [2]: 5.30 | pIC50 [3, 5]: 5.60

O=C1c2cccc3c(N4CCCCC4)ccc(c23)C(=O)N1CO [Compound C4-7, 2-Hydroxymethyl-6-piperidin-1-yl-benzo[de]isoquinoline-1,3-dione]
pIC50 [3, 6]: 7.00

O=C1c2cccc3cccc(c23)C(=O)N1CCNCO [Compound C9-3, 2-[2-(Hydroxymethyl-amino)-ethyl]-benzo[de]isoquinoline-1,3-dione]
transcription activation [1]: did not effectively activate transcription

CCN(CC)C(=O)c1sc(NC(=O)c2ccc(F)cc2)c(C(=O)OC(C)C)c1C [Compound D3, 5-Diethylcarbamoyl-2-(4-fluoro-benzoylamino)-4-methyl-thiophene-3-carboxylic acid isopropyl ester]
effect on protein aggregation (htt103Q-EGFP): facilitators of protein aggregation

CCOC(=O)c1sc(NC(=O)c2cc(S(N)(=O)=O)c(Cl)cc2Cl)c(C(=O)OCC)c1C [Compound D4, 5-(2,4-Dichloro-5-sulfamoyl-benzoylamino)-3-methyl-thiophene-2,4-dicarboxylic acid diethyl ester]
effect on protein aggregation (htt103Q-EGFP): inhibit protein aggregation

NCCSSCCN [cystamine, reference compound]
effect on scriptaid-stimulated expression and aggregation [4]: reversed the stimulatory effect | protein aggregation (R2/6 HD mice): blocked protein aggregation | survival (R2/6 HD mice): prolonged the survival | rescue from scriptaid-dependent synthetic lethality (PC12 cells): rescued

Reference: US8404747B2, “Compositions and methods for modulating interaction between polypeptides” (The General Hospital Corporation, priority 2004, dated 2013)
